Assay results taken from article PMC3775124 (Nuclear Medicine and Biology, 2013).

Assays:
human MRP1 = human MRP1 (Homo sapiens, UniProt P33527); test: CETA in MDCK cells transduced with human MRP1; conditions: calcein AM 1 μM; n = 1
Protocol: (§1) For the in vitro transport studies LLC-PK1 cells transduced with human MDR1 or murine Mdr1a and respective wild-type LLC cells were used. Additionally, Madin-Darby canine kidney type II (MDCK-II) cells transduced with murine Bcrp1 or human BCRP or human MRP1 and respective wild-type MDCK-II cells were used. The cell lines were a kind gift from Piet Borst and Alfred Schinkel (The Netherlands Cancer Institute, Amsterdam, the Netherlands). Culturing of the cells was performed as described earlier. MDR1- and Mdr1a-overexpressing LLC cells were regularly tested for vincristine sulfate resistance (0.64 μM) as described before. The MDCK-II cells transduced with Bcrp1 or BCRP were regularly tested for mitoxantrone resistance (20 μM).
(§2) CETA was performed in triplicate as described previously. With a density of 0.3 × 10^6 cells/cm^2 LLC cells were seeded on transparent polyester membrane filters (Transwell-Clear®, 6-well, 24-mm diameter, 0.4-μm pore size, Corning Costar Corporation, Cambridge, MA, USA). […] Transport experiments were performed 5–7 days after the cells reached 100% confluence. […] Control CETA was performed with calcein AM (1 μM) for MRP1 [26] and [^14C]PhIP (2 μM) for Bcrp1/BCRP. The membrane integrity was determined by mannitol diffusion and transepithelial electrical resistance (TEER), with criteria for exclusion described earlier.

human BCRP = human BCRP (Homo sapiens, UniProt Q9UNQ0); conditions: [^14C]PhIP 2 μM; n = 1
Protocol: as §1, §2

murine Bcrp1 = murine Bcrp1 (Mus musculus, UniProt Q7TMS5); conditions: [^14C]PhIP 2 μM; n = 1
Protocol: as §1, §2

murine Mdr1a = target: T1, murine Mdr1a (Mus musculus, UniProt P21447); test: CETA in LLC cells transduced with murine Mdr1a; format: in vitro ADME; conditions: tariquidar 0.5 μM; Mdr1a-overexpressing LLC cells
T1 construct: host or cells: LLC-PK1 (porcine kidney) cells

cerebral Pgp = system: cerebral Pgp; parameters: method as in PMID 20016890; conditions: tariquidar 15 mg/kg; rats; cited from earlier work
[1] = parameters: method as in PMID 19910428; conditions: cited from earlier work

T1 sequence (P21447 whole entry): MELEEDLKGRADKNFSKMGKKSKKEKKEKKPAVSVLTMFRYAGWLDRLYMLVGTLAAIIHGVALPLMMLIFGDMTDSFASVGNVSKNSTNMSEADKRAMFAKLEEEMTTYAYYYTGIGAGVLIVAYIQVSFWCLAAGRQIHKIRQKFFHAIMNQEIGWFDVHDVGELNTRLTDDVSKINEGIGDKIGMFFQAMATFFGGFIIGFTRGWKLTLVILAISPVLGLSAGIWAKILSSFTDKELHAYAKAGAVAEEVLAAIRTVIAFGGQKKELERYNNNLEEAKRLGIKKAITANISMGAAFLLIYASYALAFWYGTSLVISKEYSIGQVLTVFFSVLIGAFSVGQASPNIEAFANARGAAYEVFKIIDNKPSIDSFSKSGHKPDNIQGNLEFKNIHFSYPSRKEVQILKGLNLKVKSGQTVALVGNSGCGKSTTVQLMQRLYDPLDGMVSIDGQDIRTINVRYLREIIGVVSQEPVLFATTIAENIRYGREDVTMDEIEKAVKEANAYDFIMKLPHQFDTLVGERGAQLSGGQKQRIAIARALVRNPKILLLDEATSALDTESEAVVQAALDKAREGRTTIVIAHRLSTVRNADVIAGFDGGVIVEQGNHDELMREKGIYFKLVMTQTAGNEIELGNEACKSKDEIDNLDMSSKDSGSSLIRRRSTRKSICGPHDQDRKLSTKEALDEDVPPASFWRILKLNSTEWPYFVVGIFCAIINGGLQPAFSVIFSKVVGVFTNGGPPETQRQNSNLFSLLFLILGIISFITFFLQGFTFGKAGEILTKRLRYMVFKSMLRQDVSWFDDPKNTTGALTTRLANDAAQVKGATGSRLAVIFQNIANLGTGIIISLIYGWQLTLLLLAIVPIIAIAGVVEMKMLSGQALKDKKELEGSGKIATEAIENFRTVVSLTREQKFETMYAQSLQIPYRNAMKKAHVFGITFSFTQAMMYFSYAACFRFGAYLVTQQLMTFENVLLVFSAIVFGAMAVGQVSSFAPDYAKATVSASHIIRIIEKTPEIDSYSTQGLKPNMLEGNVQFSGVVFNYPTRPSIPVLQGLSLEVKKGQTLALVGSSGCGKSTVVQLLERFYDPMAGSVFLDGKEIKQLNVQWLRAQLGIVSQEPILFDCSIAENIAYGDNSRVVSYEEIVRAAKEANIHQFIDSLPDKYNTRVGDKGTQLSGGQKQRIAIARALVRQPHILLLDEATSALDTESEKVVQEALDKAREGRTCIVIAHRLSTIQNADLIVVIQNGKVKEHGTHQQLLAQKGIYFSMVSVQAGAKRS
Chain of murine Bcrp1 (Q7TMS5 whole entry): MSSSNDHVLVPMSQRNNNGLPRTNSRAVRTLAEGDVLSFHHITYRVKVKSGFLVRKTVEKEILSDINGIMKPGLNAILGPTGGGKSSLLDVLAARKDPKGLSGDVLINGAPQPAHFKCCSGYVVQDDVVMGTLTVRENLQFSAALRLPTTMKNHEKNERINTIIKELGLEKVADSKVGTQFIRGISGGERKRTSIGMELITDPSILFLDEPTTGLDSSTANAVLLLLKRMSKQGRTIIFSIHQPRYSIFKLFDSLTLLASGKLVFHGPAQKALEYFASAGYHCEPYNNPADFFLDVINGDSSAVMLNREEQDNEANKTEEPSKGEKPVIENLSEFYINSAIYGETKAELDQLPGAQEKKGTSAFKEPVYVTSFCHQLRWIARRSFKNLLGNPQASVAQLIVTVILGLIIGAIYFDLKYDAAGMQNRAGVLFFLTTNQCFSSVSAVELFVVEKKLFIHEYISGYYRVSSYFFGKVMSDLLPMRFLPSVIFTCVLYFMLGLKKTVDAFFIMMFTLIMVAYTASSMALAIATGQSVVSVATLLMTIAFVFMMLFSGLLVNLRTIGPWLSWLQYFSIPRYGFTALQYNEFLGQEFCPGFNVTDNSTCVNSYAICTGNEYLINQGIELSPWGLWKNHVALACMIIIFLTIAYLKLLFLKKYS
Chain of human MRP1 (P33527 whole entry): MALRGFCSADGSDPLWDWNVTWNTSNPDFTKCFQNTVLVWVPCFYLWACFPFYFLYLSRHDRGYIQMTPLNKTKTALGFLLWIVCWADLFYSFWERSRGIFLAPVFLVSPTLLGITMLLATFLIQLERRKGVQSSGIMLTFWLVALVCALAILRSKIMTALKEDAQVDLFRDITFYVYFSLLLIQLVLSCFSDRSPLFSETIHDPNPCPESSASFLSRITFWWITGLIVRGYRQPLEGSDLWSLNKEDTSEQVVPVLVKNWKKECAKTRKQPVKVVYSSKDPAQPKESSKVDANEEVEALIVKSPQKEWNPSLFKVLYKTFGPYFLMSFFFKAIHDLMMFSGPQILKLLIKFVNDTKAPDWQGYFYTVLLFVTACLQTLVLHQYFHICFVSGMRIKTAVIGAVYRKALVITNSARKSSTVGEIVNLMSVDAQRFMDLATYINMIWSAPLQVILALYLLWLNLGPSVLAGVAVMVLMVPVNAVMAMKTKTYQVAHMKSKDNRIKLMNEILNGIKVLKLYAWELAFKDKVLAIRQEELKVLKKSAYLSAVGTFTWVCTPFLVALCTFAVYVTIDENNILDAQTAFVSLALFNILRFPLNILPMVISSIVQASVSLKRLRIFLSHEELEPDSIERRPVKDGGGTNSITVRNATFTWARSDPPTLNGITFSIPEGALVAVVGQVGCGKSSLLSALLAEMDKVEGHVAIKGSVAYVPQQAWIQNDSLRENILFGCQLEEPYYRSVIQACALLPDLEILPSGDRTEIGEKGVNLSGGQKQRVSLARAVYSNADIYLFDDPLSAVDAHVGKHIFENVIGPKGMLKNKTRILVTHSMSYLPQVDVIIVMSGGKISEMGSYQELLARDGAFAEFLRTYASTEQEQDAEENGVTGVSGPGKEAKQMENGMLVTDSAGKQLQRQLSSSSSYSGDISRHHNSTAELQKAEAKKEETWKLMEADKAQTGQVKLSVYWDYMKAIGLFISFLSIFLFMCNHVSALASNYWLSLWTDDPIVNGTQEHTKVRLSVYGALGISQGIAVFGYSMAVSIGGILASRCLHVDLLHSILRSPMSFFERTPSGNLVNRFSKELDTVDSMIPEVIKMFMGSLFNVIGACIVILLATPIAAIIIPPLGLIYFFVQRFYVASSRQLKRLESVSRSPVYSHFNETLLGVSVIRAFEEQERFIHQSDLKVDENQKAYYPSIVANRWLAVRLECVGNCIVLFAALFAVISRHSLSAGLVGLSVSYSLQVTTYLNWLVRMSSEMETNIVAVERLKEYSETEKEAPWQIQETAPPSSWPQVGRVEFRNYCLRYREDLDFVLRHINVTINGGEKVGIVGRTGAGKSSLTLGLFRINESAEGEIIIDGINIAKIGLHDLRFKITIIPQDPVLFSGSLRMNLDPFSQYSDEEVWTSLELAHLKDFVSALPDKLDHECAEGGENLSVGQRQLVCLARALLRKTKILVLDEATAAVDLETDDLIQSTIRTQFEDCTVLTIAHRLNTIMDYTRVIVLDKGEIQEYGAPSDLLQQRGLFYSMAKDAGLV
Chain of human BCRP (Q9UNQ0 whole entry): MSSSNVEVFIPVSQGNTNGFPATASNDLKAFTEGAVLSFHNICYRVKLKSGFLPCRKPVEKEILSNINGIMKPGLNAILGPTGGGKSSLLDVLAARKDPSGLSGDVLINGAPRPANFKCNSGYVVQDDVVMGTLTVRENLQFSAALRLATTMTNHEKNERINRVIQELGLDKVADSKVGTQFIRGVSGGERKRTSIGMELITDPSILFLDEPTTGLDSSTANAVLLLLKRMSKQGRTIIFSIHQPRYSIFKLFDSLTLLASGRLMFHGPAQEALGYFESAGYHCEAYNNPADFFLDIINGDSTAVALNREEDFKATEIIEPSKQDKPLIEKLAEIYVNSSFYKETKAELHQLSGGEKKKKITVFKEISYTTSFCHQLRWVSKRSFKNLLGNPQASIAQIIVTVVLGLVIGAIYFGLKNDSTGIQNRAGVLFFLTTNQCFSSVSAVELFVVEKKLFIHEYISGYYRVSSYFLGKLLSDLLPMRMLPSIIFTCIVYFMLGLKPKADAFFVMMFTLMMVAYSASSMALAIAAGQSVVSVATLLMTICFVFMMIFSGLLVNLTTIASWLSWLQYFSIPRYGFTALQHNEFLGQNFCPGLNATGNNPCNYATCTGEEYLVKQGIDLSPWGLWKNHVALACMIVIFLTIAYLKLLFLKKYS

calcein AM
control CETA for MRP1 function (human MRP1): functional MRP1 was present

Cn1c(N)nc2ncc(-c3ccccc3)cc21 [[^14C]PhIP, [^14C]2-amino-1-methyl-6-phenylimidazo[4,5-b]pyridine]
control CETA for BCRP function (human BCRP): functional
control CETA for Bcrp1 function (murine Bcrp1): functional

COc1cc2c(cc1OC)CN(CCc1ccc(NC(=O)c3cc(OC)c(OC)cc3NC(=O)c3cnc4ccccc4c3)cc1)CC2 [tariquidar, Tariquidar dimesylate]
inhibition of [^3H]verapamil transport (murine Mdr1a): almost completely inhibited
inhibition of cerebral Pgp (cerebral Pgp): complete inhibition
influence on (R)-[^11C]verapamil metabolism and plasma protein binding [1]: does not influence
